# Columns and labels:
# [1] = tested on: angiogenesis-induced by the growth factor basic fibroblast growth factor (FGF); assay: Inhibition of FGF-induced angiogenesis in the chick chorioallantoic membrane (CAM) model; type: in vivo; conditions: Gallus gallus; for inhibition at 0.25 µg/mL: FGF + compound 0.25 μg/ml; for inhibition at 250 µg/mL: 10 μl at 0.25 mg/ml added to FGF impregnated filter
# Procedure: To investigate the structure-activity relationships of novel dual Thyrointegrin inhibitors of the present invention, the effect of each compound on angiogenesis-induced by the growth factor basic fibroblast growth factor (FGF) was assessed in the CAM model as depicted in Table 1.
# The data in Table 1 represents a mean±standard deviation (SD), n=8 as compared to FGF alone (p<0.001; 10 μl from the different test compounds were added to the FGF impregnated sterile filter).
# The CAM system is a widely-used model in which the chick embryonic membrane is exposed to stimulatory and inhibitory compounds. Ten day-old fertilized chicken eggs (Sunrise Farms Inc, Catskill, N.Y.) were incubated at 37° C. and 55% relative humidity. In the dark, with the help of a candling lamp, a small hole was punctured in the area of the shell covering the air sac using a hypodermic needle. A second hole was punctured on the wider side of the egg above an avascular area of the embryonic membrane. An artificial air sac was created below the second hole by gently applying a vacuum to the first hole using a small rubber squeeze bulb. The vacuum caused the separation of the CAM from the shell. A window of approximately 1.0 cm^2 was cut in the shell over the dropped CAM with the use of a mini drill. The underlying CAM was accessed through this small window. Filter disks were punched from filter paper #1 (Whatman International, Ltd, United Kingdom), and then soaked in 3.0 mg/mL cortisone acetate solution (in 95% ethanol) and air-dried under sterile conditions. To induce angiogenesis, sterile filter disks were saturated with FGF and placed on the CAM using sterile forceps. As a control, disks were saturated with PBS without calcium or magnesium. The window was sealed with Highland Brand transparent tape. After 1 hour, 10 μL of inhibitor were applied topically to the FGF-stimulated CAM. After 48 hours, CAM tissue directly beneath the filter disk was harvested and placed in a 35-mm petri dish for evaluation of angiogenesis. Eight eggs were used per treatment.
# Digital Imaging and analysis: CAMs in petri dishes were examined using a SV6 stereomicroscope (Carl Zeiss Microlmaging, Inc) at 50× magnification. Digital images were captured using a 3-CCD color video camera system (Toshiba America, Inc, New York, N.Y.). The images were analyzed using Image-Pro Plus (Media Cybernetics, Inc). The number of branch points within a circular region superimposed on the area of the filter disk was counted for each treatment condition.
# [2] = target: cell surface receptor αvβ3 (Homo sapiens, UniProt P05106+P06756); conditions: literature (Rebbaa et al. 2008); cited from earlier work
# αvβ3 = αvβ3 (Homo sapiens, UniProt P05106+P06756); assay: Inhibition of αvβ3-mediated binding in a specific cell adhesion assay; type: cell-based; conditions: at 100 nM
# [3] = 10 μl on FGF filter, mean ± SD, n=8, vs FGF alone
# [4] = post-ester hydrolysis to make the free acid
# Sequence of αvβ3 (P06756 31-889 limits assumed): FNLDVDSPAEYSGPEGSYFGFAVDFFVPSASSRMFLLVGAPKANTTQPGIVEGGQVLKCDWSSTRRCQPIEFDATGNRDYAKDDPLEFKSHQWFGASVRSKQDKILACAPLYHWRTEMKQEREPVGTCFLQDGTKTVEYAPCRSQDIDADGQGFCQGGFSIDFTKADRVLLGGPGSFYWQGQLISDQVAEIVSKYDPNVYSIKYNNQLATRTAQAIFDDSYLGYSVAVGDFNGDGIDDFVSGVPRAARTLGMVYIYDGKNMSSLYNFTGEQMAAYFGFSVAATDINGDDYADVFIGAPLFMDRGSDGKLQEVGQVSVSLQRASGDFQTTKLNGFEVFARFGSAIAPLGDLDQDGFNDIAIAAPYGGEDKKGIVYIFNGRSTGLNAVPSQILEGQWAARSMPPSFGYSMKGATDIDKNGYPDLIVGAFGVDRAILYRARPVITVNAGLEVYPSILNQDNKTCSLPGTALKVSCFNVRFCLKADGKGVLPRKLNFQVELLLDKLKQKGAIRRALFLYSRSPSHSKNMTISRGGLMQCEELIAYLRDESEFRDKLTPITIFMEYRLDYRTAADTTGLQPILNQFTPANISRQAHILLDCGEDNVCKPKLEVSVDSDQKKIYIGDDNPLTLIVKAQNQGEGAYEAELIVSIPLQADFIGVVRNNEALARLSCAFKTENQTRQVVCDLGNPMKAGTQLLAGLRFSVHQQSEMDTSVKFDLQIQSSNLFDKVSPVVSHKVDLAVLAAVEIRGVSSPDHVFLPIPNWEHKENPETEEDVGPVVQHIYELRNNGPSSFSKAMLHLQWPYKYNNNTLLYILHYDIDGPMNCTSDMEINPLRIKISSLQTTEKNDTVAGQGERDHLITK
# Sequence of αvβ3 (P06756 891-1048 partner limits assumed): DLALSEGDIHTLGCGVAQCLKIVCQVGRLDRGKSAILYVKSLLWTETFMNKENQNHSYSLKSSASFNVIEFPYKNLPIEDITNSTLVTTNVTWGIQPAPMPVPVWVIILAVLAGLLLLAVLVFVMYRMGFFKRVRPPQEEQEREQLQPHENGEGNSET
# Sequence of αvβ3 (P05106 27-788): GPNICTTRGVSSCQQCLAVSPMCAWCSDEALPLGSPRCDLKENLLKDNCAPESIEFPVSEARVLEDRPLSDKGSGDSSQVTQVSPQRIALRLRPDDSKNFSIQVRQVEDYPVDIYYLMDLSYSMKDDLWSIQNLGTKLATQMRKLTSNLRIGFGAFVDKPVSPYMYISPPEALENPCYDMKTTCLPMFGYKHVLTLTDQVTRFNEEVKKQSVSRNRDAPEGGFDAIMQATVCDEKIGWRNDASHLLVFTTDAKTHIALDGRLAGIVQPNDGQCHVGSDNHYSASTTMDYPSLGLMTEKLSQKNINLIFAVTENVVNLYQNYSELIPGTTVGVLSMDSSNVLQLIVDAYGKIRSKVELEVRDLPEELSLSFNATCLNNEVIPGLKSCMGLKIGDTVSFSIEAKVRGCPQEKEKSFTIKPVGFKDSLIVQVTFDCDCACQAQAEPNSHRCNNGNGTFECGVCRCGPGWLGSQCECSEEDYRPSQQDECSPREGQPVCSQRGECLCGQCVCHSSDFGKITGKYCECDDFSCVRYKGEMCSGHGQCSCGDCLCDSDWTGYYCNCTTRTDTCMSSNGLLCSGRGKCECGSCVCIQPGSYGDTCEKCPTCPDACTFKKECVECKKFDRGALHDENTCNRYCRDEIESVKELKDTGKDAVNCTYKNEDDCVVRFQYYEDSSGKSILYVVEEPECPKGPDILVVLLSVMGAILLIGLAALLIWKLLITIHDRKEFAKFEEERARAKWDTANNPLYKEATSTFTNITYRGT
# Sequence of cell surface receptor αvβ3 (P06756 31-889 limits assumed): as the sequence (P06756 31-889 limits assumed) above
# Sequence of cell surface receptor αvβ3 (P06756 891-1048 partner limits assumed): as the sequence (P06756 891-1048 partner limits assumed) above
# Sequence of cell surface receptor αvβ3 (P05106 27-788): as the sequence (P05106 27-788) above
inhibition at 0.1 µM (αvβ3) [%],inhibition at 0.1 µM (αvβ3; [4]) [%],Compound,inhibition at 250 µg/mL [1] [%],"inhibition at 250 µg/mL [1, 4] [%]",further results
–,–,"O=C(O)Cc1cc(I)c(Oc2cc(I)c(O)c(I)c2)c(I)c1 [Tetrac, [4-(4-Hydroxy-3,5-diiodophenoxy)-3,5-diiodophenyl]acetic acid, reference compound]",–,–,"inhibition at 10 µg/mL ([1]; FGF + compound 10 μg/ml, 10 μl on FGF filter, mean ± SD, n=8, vs FGF alone): 85 ± 11%; affinity of binding to αvβ3 [2]: weak affinity"
–,–,"NC(N)=NCCOc1c(I)cc(Oc2c(I)cc(CC(=O)[O-])cc2I)cc1I.[Li+] [compound 21, Lithium [4-(4-{2-[(diaminomethylene)amino]ethoxy}-3,5-diiodophenoxy)-3,5-diiodophenyl]acetate]",–,–,"melting point: 133 °C; inhibition at 0.25 µg/mL [1, 3]: 75 ± 10%"
–,–,"NC(=O)NCCOc1c(I)cc(Oc2c(I)cc(CC(=O)O)cc2I)cc1I [compound 22, (4-{4-[2-(Carbamoylamino)ethoxy]-3,5-diiodophenoxy}-3,5-diiodophenyl)acetic acid]",–,–,"melting point: 267 °C; inhibition at 0.25 µg/mL [1, 3]: 74 ± 13%"
–,–,"NCCCOc1c(I)cc(Oc2c(I)cc(CC(=O)O)cc2I)cc1I [compound 23, {4-[4-(3-aminopropoxy)-3,5-diiodophenoxy]-3,5-diiodophenyl}acetic acid]",–,–,"inhibition at 0.25 µg/mL [1, 3]: 88 ± 11%"
66 ± 8,–,CC(C)(C)OC(=O)NCCCOc1c(I)cc(Oc2c(I)cc(CC(=O)O)cc2I)cc1I [compound 30],75 ± 7,–,–
0,–,COC(=O)Cc1cc(I)c(Oc2cc(I)c(OCCCN)c(I)c2)c(I)c1 [compound 31],0,–,–
–,100,NCCCOc1c(I)cc(Oc2c(I)cc(CC(=O)O)cc2I)cc1I [compound 32],–,88 ± 8,–
0,–,COC(=O)Cc1cc(I)c(Oc2cc(I)c(OCCCNCc3cccnc3)c(I)c2)c(I)c1 [compound 33],0,–,–
–,68 ± 7,O=C(O)Cc1cc(I)c(Oc2cc(I)c(OCCCNCc3cccnc3)c(I)c2)c(I)c1 [compound 34],–,95 ± 11,–
0,–,COC(=O)Cc1cc(I)c(Oc2cc(I)c(OCCCN3CCSCC3)c(I)c2)c(I)c1 [compound 35],0,–,–
–,93 ± 8,O=C(O)Cc1cc(I)c(Oc2cc(I)c(OCCCN3CCSCC3)c(I)c2)c(I)c1 [compound 36],–,89 ± 10,–
1,100,CCN(CC)CCCOc1c(I)cc(Oc2c(I)cc(CC(=O)OC)cc2I)cc1I [compound 37],0,83,–

# Source: US9580395B2, “Compositions of dual thyrointegrin antagonists and use in vascular-associated disorders” (Vascular Vision Pharmaceutical Company, priority 2009, dated 2017)
